Source: PMC9643456, “Matching amino acids membrane preference profile to improve activity of antimicrobial peptides” (Communications Biology, 2022)
In brackets after ≈: the same amount, converted by molar mass. Square brackets hold non-standard residues; d marks the D form. Peptide text beside a SMILES is read from it.

Tests used:
E. aerogenes NCCP 16285 = assay: microbe, parasite or virus in culture
Procedure: (§1) To assess antimicrobial activity, the MIC50 and MIC90 were measured using broth microdilution following CLSI guidelines. […] Each experiment was performed in triplicate. Meropenem (Sigma, Darmstadt, Germany) and colistin were used as control antibiotics. Cation-adjusted Mueller–Hinton broth (CAMHB) (Becton, Dickinson and Company, Franklin Lakes, USA) with supplied calcium (50 mg/L) and magnesium (10 mg/L) was used for the CLSI-test condition. Bacteria in midlog phase and peptides were separately diluted in CAMHB. The bacteria and peptide solutions were then mixed in 96-well polyethylene plates (SPL, Gyeonggi-do, Korea) and incubated for 18 h at 37 °C. The final concentration for bacteria was 5 × 10^5 CFU/ml. […] The MIC was defined to be the lowest concentration of peptide without visible turbidity by comparing with control antibiotics with the unaided eye. […] Each experiment was performed in triplicate. MICs in albumin and acetic acid solutions were measured using the same protocol but with 0.2% bovine serum albumin (Bovogen, Keilor, Australia), 0.01% acetic acid (Merck, New Jersey, USA), and CAMHB with both calcium and magnesium. In addition, MICs used in the antibiotic resistance acquisition test, the outer–inner membrane permeation test, and the transmembrane potential test and for FE-SEM were individually determined. The final bacterial concentrations used were as follows: for resistance acquisition, optical density (OD) 0.01; for outer–inner membrane permeability assays (LB), OD 0.1; for the transmembrane potential test, 1 × 10^8 CFU/ml (OD 0.171); […]. Inhibitory activity unidentifiable by direct observation was determined by counting the CFUs. Each experiment was performed at least twice.

A. baumannii KCCM 40203 = assay: microbe, parasite or virus in culture; conditions: bacteria OD 0.01, CAMHB
Procedure: as §1
(§2) A. baumannii (KCCM 40203) and S. aureus (KCTC 1621) were selected as drug-sensitive bacteria. Mutation-susceptible tetracycline (an antibiotic that targets ribosomes) (Sigma, Darmstadt, Germany) and ofloxacin (an antibiotic that targets DNA gyrase) (Sigma, Darmstadt, Germany), mutation-resistant colistin (an antibiotic that targets lipopolysaccharide) (Sigma, Darmstadt, Germany) and vancomycin (an antibiotic that targets peptidoglycan pentapeptide) (Sigma, Darmstadt, Germany) were used as control antibiotics. The MIC for each antibiotic against bacteria (at OD 0.01) was measured. […] The MIC for each passage was confirmed by additional broth microdilutions under CLSI guidelines. Resistance acquisition was induced for 30 days (30 passages), and each MIC value was confirmed by an independent MIC test against bacteria at each passage.

[1] = system: colistin-resistant A. baumannii; assay: In vivo activity, survival of infected mice; conditions: mouse model infected with colistin-resistant A. baumannii
Procedure: (§3) Female BALB/c mice (8-week old; n = 10) were purchased from orientbio (Gyeonggido, Republic of Korea) and fed under standardized environmental conditions for 1 week to be used to estimate time-dependent mouse survival rates. After inducing neutropenia by intraperitoneal injection of cyclophosphamide (150 mg/kg; Sigma), MDR S. aureus (KCCM 40510), MDR A. baumannii (colistin-resistant strain) or MDR K. pneumonia (colistin-resistant strain, NCCP 16125) was diluted in PBS and subcutaneously injected into mice (S. aureus, 1.5 × 10^8 CFU/ml; A. baumannii, 1 × 10^8 CFU/ml; K. pneumonia, 1 × 10^9 CFU/ml). After bacterial infection, 100 μl of WCopW43 peptide dissolved in distilled water (10 mg/ml) were injected (50 mg/kg) into each infected site, and survival was monitored every 12 h for 7 days. For A. baumannii infection, mice were intraperitoneally injected with mucin ([…], 1% in PBS, 300 μl) to suppress macrophages, and A. baumannii cells were incubated with mucin (1% in PBS) for 3 h before subcutaneous injection of 2 × 10^8 CFU/ml (0.2% mucin in PBS)[71]–[74]. Survival rates were calculated using the formula: 100% × (number of surviving mice/ten mice). One day after WCopW43 (50 mg/kg) injection, four mice were randomly selected and sacrificed by CO2 inhalation. […] Homogenized samples were spread onto MH agar plates, and CFU values were determined after incubation overnight at 37 °C.

K. pneumonia strains = assay: microbe, parasite or virus in culture
[2] = 100 mg/kg s.c. daily for 3 days, n = 3; BUN and creatinine
Procedure: To assess nephrotoxicity, mice (female BALB/c, 8 weeks old; n = 3) were subcutaneously administered WCopW43 (100 mg/kg) or PBS (controls) three times (once every 24 h). Blood samples were then collected from the retroorbital veins into heparin-coated glass capillary tubes (Kimble Chase, NJ, USA), which were then centrifuged at 4000 rpm. The serum was collected and analyzed using a blood urea nitrogen (BUN) assay kit (Arbor Assay, Ann Arbor, USA) and a creatinine assay kit (Arbor Assay). Levels of BUN and blood creatinine clearance were measured using a SpectraMax plate spectrophotometer (Molecular Devices) at 450 nm and 490 nm, respectively.

[3] = system: MDR A. baumannii, MDR S. aureus or MDR K. pneumonia; assay: In vivo activity, subcutaneously infected mice; design: species or system BALB/c mice
Procedure: as §3

[4] = system: A. baumannii (KCCM 40203) and S. aureus (KCTC 1621); conditions: MIC and sub-MIC exposure for 30 days (30 passages)
Text: as §2

MDR S. aureus = assay: Killing kinetics in the SEM sample; format: cell-based, Staphylococcus aureus; conditions: 2 × 10^8 cfu/ml, x1 MIC, PBS, after 4 hours
Procedure: FE-SEM was used to observe peptide-induced changes in bacterial morphology. MDR A. baumannii (ATCC BAA-1605) and MDR S. aureus (KCCM 40510) were cultured in CAMHB to log phase and washed in PBS. Bacteria and peptides were diluted in PBS, after which aliquots of bacteria (50 μl) and peptides (50 μl) were mixed to yield the following final concentrations: MDR A. baumannii or MDR S. aureus, 2 × 10^8 CFU/ml; WCopW29, 2.5 μM. Mixtures were deposited onto cover glass slips and incubated for 0 min, 15 min, 30 min, 1 h or 4 h. After incubation, the bacteria were fixed with paraformaldehyde (4%) and osmium tetroxide (1%) (Sigma, Darmstadt, Germany), washed with water, and freeze-dried overnight. Freeze-dried samples were Pt-coated and placed in an S-4700, EMAX System field emission scanning electron microscope (Hitachi, Tokyo, Japan). Bacterial morphologies were imaged and recorded on video at magnifications of 10,000× and 25,000×.
Antimicrobial kinetics for each peptide and each bacterial strain were assessed using FE-SEM. […] Each experiment was performed in triplicate.

## Colistin
E. aerogenes NCCP 16285; MIC test, 5 x 10^5 cfu/ml, CAMHB
  MIC, E. aerogenes NCCP 16285: > 5 µM
A. baumannii KCCM 40203
  MIC at resistance induction condition, A. baumannii KCCM 40203: 1.25 µM
[1]
  Survival rate: 90%
K. pneumonia strains; CLSI
  MIC, K. pneumonia NCCP 15782: 1.25 µM
  MIC, K. pneumonia NCCP 15864: 0.63 µM
  MIC, K. pneumonia NCCP 15866: 0.63 µM
  MIC, K. pneumonia NCCP 16052: 0.63 µM
  MIC, K. pneumonia NCCP 16124: 20 µM
  MIC, K. pneumonia NCCP 16128: 5 µM
  MIC, K. pneumonia NCCP 16208: < 0.31 µM
  MIC, K. pneumonia NCCP 16212: < 0.31 µM
  MIC, K. pneumonia NCCP 16213: 0.63 µM

## CC[C@@H](C)[C@@H](NC(=O)[C@@H](Cc1c[nH]c2ccccc12)NC(=O)[C@@H](CCCNC(=N)N)NC(=O)[C@@H](CCCNC(=N)N)NC(=O)[C@H](N)CCCNC(=N)N)C(=O)N[C@H](Cc1c[nH]c2ccccc12)C(=O)N[C@@H](C(=O)N[C@@H](C(=O)N[C@H](Cc1c[nH]c2ccccc12)C(=O)N[C@H](CCCCN)C(N)=O)[C@H](C)CC)C(C)C [WCopW43] (H-[dR][dR][dR][dW][dI][dW][dV][dI][dW][dK]-NH2)
E. aerogenes NCCP 16285; NCCP 16285, 18 h
  MIC, E. aerogenes NCCP 16285: 1.25 µM (≈ 1.87 µg/mL)
[2]
  Nephrotoxicity indicators: non-nephrotoxic
[1]
  Survival rate: 100%
K. pneumonia strains; 18 h
  MIC, K. pneumonia NCCP 15782: 1.25 µM (≈ 1.87 µg/mL)
  MIC, K. pneumonia NCCP 15864: 1.25 µM (≈ 1.87 µg/mL)
  MIC, K. pneumonia NCCP 15866: 2.5 µM (≈ 3.74 µg/mL)
  MIC, K. pneumonia NCCP 16052: 2.5 µM (≈ 3.74 µg/mL)
  MIC, K. pneumonia NCCP 16124: 1.25 µM (≈ 1.87 µg/mL)
  MIC, K. pneumonia NCCP 16125: 2.5 µM (≈ 3.74 µg/mL)
  MIC, K. pneumonia NCCP 16128: 5 µM (≈ 7.49 µg/mL)
  MIC, K. pneumonia NCCP 16208: 1.25 µM (≈ 1.87 µg/mL)
  MIC, K. pneumonia NCCP 16212: 2.5 µM (≈ 3.74 µg/mL)
  MIC, K. pneumonia NCCP 16213: 1.25 µM (≈ 1.87 µg/mL)
[3]; WCopW43 50 mg/kg s.c. 1 h after infection, tissue CFU one day after infection, vs PBS
  Decrease of bacterial burden (CFU): ~ 90%
[3]; WCopW43 50 mg/kg s.c., neutropenic BALB/c mice, n = 10, 7 days
  Survival compared with PBS-injected mice: survived longer
[4]
  MIC during resistance acquisition: emergence of WCopW43 resistance is suppressed

## CC[C@@H](C)[C@@H](NC(=O)[C@@H](Cc1c[nH]c2ccccc12)NC(=O)[C@H](NC(=O)[C@@H](CC(C)C)NC(=O)[C@H](N)Cc1c[nH]c2ccccc12)C(C)C)C(=O)N[C@H](Cc1c[nH]c2ccccc12)C(=O)N[C@H](CCCNC(=N)N)C(=O)N[C@H](CCCNC(=N)N)C(=O)N[C@H](CCCNC(=N)N)C(N)=O [WCopW29] (H-[dW][dL][dV][dW][dI][dW][dR][dR][dR]-NH2)
A. baumannii KCCM 40203
  MIC at resistance induction condition, A. baumannii KCCM 40203: 1.25 µM (≈ 1.71 µg/mL)
[4]
  MIC during resistance acquisition: stable over a period of 30 days
MDR S. aureus
  Loss of colony forming: 90%
